Data: patent US20140155384A1, “COMPOUNDS AND METHODS OF TREATING DIABETES” (Medivation Technologies, Inc., priority 2011, published 2014)

Experiments:
[1] = molecular target: T1, human recombinant adrenergic α2A receptor (Homo sapiens, UniProt P08913); test: Radioligand binding, adrenergic α2A receptor ([3H]MK-912); conditions: 0.1 μM compound; Sf9 cells; 1 nM [3H]MK-912; read-out: Percentage inhibition of ligand binding, Adrenergic α2A
T1 construct: expressed in transfected cells; host or cells: insect Sf9 cells
T1 sequence (P08913 1-465): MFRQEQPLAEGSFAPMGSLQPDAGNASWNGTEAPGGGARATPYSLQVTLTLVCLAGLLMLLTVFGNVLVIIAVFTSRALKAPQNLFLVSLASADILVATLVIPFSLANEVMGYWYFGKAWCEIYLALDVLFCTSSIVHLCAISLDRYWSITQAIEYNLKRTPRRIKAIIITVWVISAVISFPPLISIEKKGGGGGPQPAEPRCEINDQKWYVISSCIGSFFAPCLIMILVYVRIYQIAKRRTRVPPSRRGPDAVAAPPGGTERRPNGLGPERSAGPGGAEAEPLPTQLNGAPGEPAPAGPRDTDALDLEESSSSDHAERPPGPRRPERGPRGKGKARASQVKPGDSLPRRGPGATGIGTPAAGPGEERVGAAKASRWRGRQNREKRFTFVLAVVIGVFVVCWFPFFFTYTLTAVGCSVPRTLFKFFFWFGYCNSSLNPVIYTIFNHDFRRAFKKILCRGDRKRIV
Summary of the method: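 Percent inhibition of specific [3H]MK-912 (1 nM) binding measured by filtration counting, compounds tested at ≤1 μM in 1% DMSO. Receptor: human α2A from Sf9 cells; incubation 60 min, 25 °C, pH 7.4; 10 μM WB-4101 defined nonspecific binding.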

[2] = molecular target: T2, human recombinant adrenergic α2B receptor (Homo sapiens, UniProt P18089); test: Radioligand binding, adrenergic α2B receptor ([3H]Rauwolscine); conditions: 0.1 μM compound, CHO-K1 cells, read-out: Percentage inhibition of ligand binding, Adrenergic α2B
T2 construct: expressed in transfected cells; host or cells: CHO-K1
T2 sequence (P18089 1-450): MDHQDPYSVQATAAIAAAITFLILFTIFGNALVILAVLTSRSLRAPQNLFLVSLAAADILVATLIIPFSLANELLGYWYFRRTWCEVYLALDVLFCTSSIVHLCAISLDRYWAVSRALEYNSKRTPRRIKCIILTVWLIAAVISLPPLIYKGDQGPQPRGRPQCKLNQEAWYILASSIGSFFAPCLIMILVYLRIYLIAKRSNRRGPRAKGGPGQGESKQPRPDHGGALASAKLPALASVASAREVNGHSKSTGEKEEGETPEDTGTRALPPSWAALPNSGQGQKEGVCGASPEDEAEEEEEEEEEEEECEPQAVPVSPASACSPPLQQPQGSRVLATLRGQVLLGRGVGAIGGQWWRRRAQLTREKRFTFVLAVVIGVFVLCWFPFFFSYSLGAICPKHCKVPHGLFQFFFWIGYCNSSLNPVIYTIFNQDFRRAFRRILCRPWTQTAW
Summary of the method: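 Percent inhibition of specific [3H]Rauwolscine (2.5 nM) binding, compounds at ≤1 μM, 1% DMSO vehicle, 10 μM prazosin defining nonspecific. Receptor: human α2B expressed in CHO-K1 cells, 60 min incubation at 25 °C in Tris-HCl pH 7.4 buffer (MgCl2, EDTA, BSA); filtered, washed, counted.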

[3] = molecular target: T3, rat adrenergic α1B receptor (Rattus norvegicus, UniProt P15823); test: Radioligand binding, adrenergic α1B receptor ([3H]Prazosin); conditions: 0.1 μM compound, Wistar rat liver, read-out: Percentage inhibition of ligand binding, Adrenergic α1B
T3 construct: rat adrenergic α1B receptor obtained from Wistar Rat liver; from tissue; host or cells: Wistar rat liver
T3 sequence (P15823 1-515): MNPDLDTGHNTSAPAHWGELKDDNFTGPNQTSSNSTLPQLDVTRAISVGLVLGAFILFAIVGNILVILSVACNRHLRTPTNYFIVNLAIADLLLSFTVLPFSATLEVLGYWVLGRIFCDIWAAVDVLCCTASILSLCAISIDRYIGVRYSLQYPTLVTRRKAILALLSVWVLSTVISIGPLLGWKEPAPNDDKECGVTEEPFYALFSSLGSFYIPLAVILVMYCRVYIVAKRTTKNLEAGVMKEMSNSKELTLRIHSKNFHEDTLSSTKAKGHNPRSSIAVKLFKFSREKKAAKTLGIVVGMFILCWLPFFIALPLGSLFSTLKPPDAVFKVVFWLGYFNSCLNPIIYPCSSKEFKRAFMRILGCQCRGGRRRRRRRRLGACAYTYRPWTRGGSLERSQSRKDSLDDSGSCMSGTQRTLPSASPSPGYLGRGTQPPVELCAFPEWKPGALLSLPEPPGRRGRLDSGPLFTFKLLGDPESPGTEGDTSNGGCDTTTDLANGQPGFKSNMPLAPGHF
Summary of the method: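 Wistar rat liver α1B receptor preparation incubated with 0.25 nM [3H]prazosin and compound for 60 min at 25° C in 50 mM Tris-HCl pH 7.4, 0.5 mM EDTA; nonspecific binding defined with 10 μM phentolamine.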

[4] = molecular target: T4, human recombinant adrenergic α1D receptor (Homo sapiens, UniProt P25100); test: Radioligand binding, adrenergic α1D receptor ([3H]Prazosin); conditions: 0.1 μM compound; HEK-293 cells; 0.6 nM [3H]Prazosin; read-out: Percentage inhibition of ligand binding, Adrenergic α1D
T4 construct: expressed in transfected cells; host or cells: HEK-293
T4 sequence (P25100 1-572): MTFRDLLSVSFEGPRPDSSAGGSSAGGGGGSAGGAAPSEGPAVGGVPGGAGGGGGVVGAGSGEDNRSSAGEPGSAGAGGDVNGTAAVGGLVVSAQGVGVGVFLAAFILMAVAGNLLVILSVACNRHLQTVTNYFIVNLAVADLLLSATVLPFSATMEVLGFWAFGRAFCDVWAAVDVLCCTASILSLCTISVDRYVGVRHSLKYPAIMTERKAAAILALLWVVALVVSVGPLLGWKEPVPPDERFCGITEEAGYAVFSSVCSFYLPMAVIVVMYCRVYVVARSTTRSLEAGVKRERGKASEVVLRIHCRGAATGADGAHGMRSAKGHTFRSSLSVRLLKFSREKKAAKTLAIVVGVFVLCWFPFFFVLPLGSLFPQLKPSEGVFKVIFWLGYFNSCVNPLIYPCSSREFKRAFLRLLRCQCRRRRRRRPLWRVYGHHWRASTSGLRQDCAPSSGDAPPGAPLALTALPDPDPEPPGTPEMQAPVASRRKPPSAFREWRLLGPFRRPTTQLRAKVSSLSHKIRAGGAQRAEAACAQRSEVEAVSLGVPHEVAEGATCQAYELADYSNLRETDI
Method: Compounds were incubated with 0.6 nM [3H]Prazosin for 60 min at 25° C. Non-specific binding was estimated in the presence of 10 μM phentolamine. Receptor proteins were filtered and washed, the filters were then counted to determine [3H]Prazosin specifically bound. Compounds were screened at 1 μM or lower, using 1% DMSO as vehicle. Biochemical assay results are presented as the percent inhibition of specific binding in Table 2.

inhibition at 0.1 µM [1] [%] | inhibition at 0.1 µM [2] [%] | inhibition at 0.1 µM [3] [%] | inhibition at 0.1 µM [4] [%] | Structure (SMILES)
75 | 28 | 0 | 3 | Cc1ccc2c(c1)c1c(n2-c2cccc(-c3ccc(S(C)(=O)=O)cc3)c2)CCN(C)C1 [Compound No. 131, 2,8-dimethyl-5-(4′-(methylsulfonyl)biphenyl-3-yl)-2,3,4,5-tetrahydro-1H-pyrido[4,3-b]indole]
74 | 67 | 36 | 80 | Cc1ccc2c(c1)c1c(n2-c2ccccc2-c2cnc(N(C)C)nc2)CCN(C)C1 [Compound 31]
10 | 30 | 35 | 19 | Cc1ccc2c(c1)c1c(n2-c2ccoc2)CCN(C)C1 [Compound 15, 5-furan-3-yl-2,8-dimethyl-2,3,4,5-tetrahydro-1H-pyrido[4,3-b]indole]
33 | 67 | 26 | 22 | Cc1ccc2c(c1)c1c(n2-c2ccccc2-c2cnn(C)c2)CCN(C)C1 [Compound No. 86, 2,8-dimethyl-5-(2-(1-methyl-1H-pyrazol-4-yl)phenyl)-2,3,4,5-tetrahydro-1H-pyrido[4,3-b]indole]
70 | 96 | 69 | 56 | Cc1ccc2c(c1)c1c(n2-c2ccc(-c3ccc(F)cc3)cn2)CCN(C)C1 [Compound No. 140, 5-(5-(4-fluorophenyl)pyridin-2-yl)-2,8-dimethyl-2,3,4,5-tetrahydro-1H-pyrido[4,3-b]indole]
30 | 18 | 13 | 16 | Cc1ccc2c(c1)c1c(n2-c2ccccc2-c2cncc3ccccc23)CCN(C)C1 [Compound No. 87, 5-(2-(isoquinolin-4-yl)phenyl)-2,8-dimethyl-2,3,4,5-tetrahydro-1H-pyrido[4,3-b]indole]
17 | 69 | 33 | 28 | Cc1ccc2c(c1)c1c(n2-c2ccc(-c3ccncc3)cn2)CCN(C)C1 [Compound No. 132, 5-(3,4′-bipyridin-6-yl)-2,8-dimethyl-2,3,4,5-tetrahydro-1H-pyrido[4,3-b]indole]

More lines, now with the values behind:

Structure (SMILES) | inhibition at 0.1 µM [1] [%] | inhibition at 0.1 µM [2] [%] | inhibition at 0.1 µM [3] [%] | inhibition at 0.1 µM [4] [%]
Cc1ccc2c(c1)c1c(n2-c2cccc(-c3ccc4[nH]cnc4c3)c2)CCN(C)C1 [Compound 54, 5-(3-(1H-benzo[d]imidazol-5-yl)phenyl)-2,8-dimethyl-2,3,4,5-tetrahydro-1H-pyrido[4,3-b]indole] | 23 | 3 | 8 | -3
Cc1ccc2c(c1)c1c(n2-c2ccccc2-c2c(C)noc2C)CCN(C)C1 [Compound No. 82, 4-(2-(2,8-dimethyl-3,4-dihydro-1H-pyrido[4,3-b]indol-5(2H)-yl)phenyl)-3,5-dimethylisoxazole] | 30 | 21 | 14 | 14
CNC(=O)c1ccc(-c2ccccc2-n2c3c(c4cc(C)ccc42)CN(C)CC3)cc1 [Compound No. 72, 2′-(2,8-dimethyl-3,4-dihydro-1H-pyrido[4,3-b]indol-5(2H)-yl)-N-methylbiphenyl-4-carboxamide] | 3 | 17 | 28 | 56
Cc1ccc2c(c1)c1c(n2-c2ccccc2-c2cccc3[nH]ncc23)CCN(C)C1 [Compound No. 105, 5-(2-(1H-indazol-4-yl)phenyl)-2,8-dimethyl-2,3,4,5-tetrahydro-1H-pyrido[4,3-b]indole] | 79 | 84 | 71 | 65
Cc1ccc2c(c1)c1c(n2-c2ccc(-c3ccnn3C)cn2)CCN(C)C1 [Compound No. 146, 2,8-dimethyl-5-(5-(1-methyl-1H-pyrazol-5-yl)pyridin-2-yl)-2,3,4,5-tetrahydro-1H-pyrido[4,3-b]indole] | 26 | 54 | 70 | 79
Cc1ccc2c(c1)c1c(n2-c2cscc2C(=O)N(C)C)CCN(C)C1 [Compound No. 152] | 9 | 51 | 10 | 16
Cc1ccc2c(c1)c1c(n2-c2ccc(-c3sccc3C)cn2)CCN(C)C1 [Compound No. 148, 2,8-dimethyl-5-(5-(3-methylthiophen-2-yl)pyridin-2-yl)-2,3,4,5-tetrahydro-1H-pyrido[4,3-b]indole] | 50 | 90 | 63 | 68
CC(=O)Nc1ccc(-c2ccc(-n3c4c(c5cc(C)ccc53)CN(C)CC4)nc2)cn1 [Compound No. 139, N-(6′-(2,8-dimethyl-3,4-dihydro-1H-pyrido[4,3-b]indol-5(2H)-yl)-3,3′-bipyridin-6-yl)acetamide] | 18 | 59 | 55 | 45
Cc1ccc2c(c1)c1c(n2-c2cccc(-c3c(C)noc3C)c2)CCN(C)C1 [Compound No. 65, 4-(3-(2,8-dimethyl-3,4-dihydro-1H-pyrido[4,3-b]indol-5(2H)-yl)phenyl)-3,5-dimethylisoxazole] | 33 | 46 | 14 | 1
